Results reported in BindingDB's records for doi:10.3109/14756366.2010.548329 (Sun Yat-sen University, 2011).

What was measured:
Acetylcholinesterase = Acetylcholinesterase (Electrophorus electricus, UniProt O42275); assay: Enzyme Inhibition Assay; conditions: pH 8; 37 °C
Experimental: (§1) Enzyme solutions were prepared to give 2.0 units/mL in 2 mL aliquots. The assay medium contained phosphate buffer, pH 8.0 (1 mL), 50 μL of 0.01 M DTNB, 10 μL of enzyme, and 50 μL of 0.01 M substrate (ATC). The substrate was added to the assay medium containing enzyme, buffer, and DTNB with inhibitor after 15 min of incubation time. […] In vitro BuChE assay use the similar method described above.

Cholinesterase = Cholinesterase (Equus caballus, UniProt P81908); assay: Enzyme Inhibition Assay; conditions: pH 8; 37 °C
Chain of Cholinesterase (P81908 whole entry): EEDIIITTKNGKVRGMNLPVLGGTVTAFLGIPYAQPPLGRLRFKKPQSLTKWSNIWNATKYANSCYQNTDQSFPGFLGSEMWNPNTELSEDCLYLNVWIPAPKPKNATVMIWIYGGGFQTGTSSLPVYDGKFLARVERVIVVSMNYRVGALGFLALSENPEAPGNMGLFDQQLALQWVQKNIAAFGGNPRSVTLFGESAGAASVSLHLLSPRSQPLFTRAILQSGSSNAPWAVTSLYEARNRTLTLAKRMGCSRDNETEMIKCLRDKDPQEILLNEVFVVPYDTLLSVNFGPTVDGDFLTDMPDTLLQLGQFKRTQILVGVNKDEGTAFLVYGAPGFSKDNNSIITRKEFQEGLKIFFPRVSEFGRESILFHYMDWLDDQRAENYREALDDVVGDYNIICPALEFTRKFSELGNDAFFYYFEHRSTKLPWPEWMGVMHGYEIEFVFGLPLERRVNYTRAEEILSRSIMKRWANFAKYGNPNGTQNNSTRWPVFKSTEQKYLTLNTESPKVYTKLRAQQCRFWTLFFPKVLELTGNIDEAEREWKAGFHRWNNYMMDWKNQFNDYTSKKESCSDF
Experimental: as §1

Chain of Acetylcholinesterase (O42275 whole entry): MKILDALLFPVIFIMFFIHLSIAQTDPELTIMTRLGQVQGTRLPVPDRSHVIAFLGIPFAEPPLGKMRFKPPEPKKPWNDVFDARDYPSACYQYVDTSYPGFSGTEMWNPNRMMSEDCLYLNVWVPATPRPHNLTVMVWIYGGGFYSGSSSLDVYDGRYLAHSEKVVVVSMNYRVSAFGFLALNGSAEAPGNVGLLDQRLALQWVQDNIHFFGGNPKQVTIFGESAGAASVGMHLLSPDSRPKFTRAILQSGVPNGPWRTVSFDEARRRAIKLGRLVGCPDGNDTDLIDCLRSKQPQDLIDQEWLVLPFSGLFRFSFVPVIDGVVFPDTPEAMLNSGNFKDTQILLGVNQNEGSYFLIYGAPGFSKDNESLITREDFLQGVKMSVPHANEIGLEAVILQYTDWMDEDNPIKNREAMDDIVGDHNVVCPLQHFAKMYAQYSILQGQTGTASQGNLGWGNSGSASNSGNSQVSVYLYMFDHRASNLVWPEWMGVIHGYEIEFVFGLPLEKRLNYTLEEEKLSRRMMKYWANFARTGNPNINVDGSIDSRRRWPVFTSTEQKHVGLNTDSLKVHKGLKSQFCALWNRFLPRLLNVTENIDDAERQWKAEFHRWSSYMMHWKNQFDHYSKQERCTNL

SMILES | IC50 (Acetylcholinesterase) [µM] | IC50 (Cholinesterase) [µM]
COc1cc(CNCCCCCCCCNCc2cc(OC)c3c(c2)OCO3)cc2c1OCO2 [N1, N8-bis((7-methoxybenzo[d][1,3]dioxol-5-yl)methyl)octane-1,8-diamine (5f)] | 2.79 | 3.11
COc1cc(CNCCCNCc2cc(OC)c3c(c2)OCO3)cc2c1OCO2 [N1,N3-bis((7-methoxybenzo[d][1,3]dioxol-5-yl)methyl)propane-1,3-diamine (5a)] | > 125 | 52.3
COc1cc(CNCCCCNCc2cc(OC)c3c(c2)OCO3)cc2c1OCO2 [N1,N4-bis((7-methoxybenzo[d][1,3]dioxol-5-yl)methyl)butane-1,4-diamine (5b)] | 120 | 12.1
COc1cc(CNCCCCCNCc2cc(OC)c3c(c2)OCO3)cc2c1OCO2 [N1,N5-bis((7-methoxybenzo[d][1,3]dioxol-5-yl)methyl)pentane-1,5-diamine (5c)] | 13.2 | 3.35
COc1cc(CNCCCCCCNCc2cc(OC)c3c(c2)OCO3)cc2c1OCO2 [N1,N6-bis((7-methoxybenzo[d][1,3]dioxol-5-yl)methyl)hexane-1,6-diamine (5d)] | 9.78 | 2.07
COc1cc(CNCCCCCCCNCc2cc(OC)c3c(c2)OCO3)cc2c1OCO2 [N1,N7-bis((7-methoxybenzo[d][1,3]dioxol-5-yl)methyl)heptane-1,7-diamine (5e)] | 4.24 | 3.02
COc1cc(CNCCCCCCCCCNCc2cc(OC)c3c(c2)OCO3)cc2c1OCO2 [N1,N9-bis((7-methoxybenzo[d][1,3]dioxol-5-yl)methyl)nonane-1,9-diamine (5g)] | 2.76 | 5.14
